Measured values taken from patent publication US20220380319A1 (Bial - R&D Investments, S.A., priority 2019, published 2022).
Converted amounts (≈) assume the structure as drawn.

Experiments:
acid ceramidase = target: T1, acid ceramidase (Homo sapiens, UniProt Q13510); test: Acid ceramidase inhibition, biochemical fluorescent assay with cell lysates overexpressing acid ceramidase, substrate Rbm14-12; conditions: substrate Rbm14-12 6.3 μM
T1 construct: Cell lysates overexpressing acid ceramidase were used as the enzyme source; expressed in transfected cells
T1 sequence (Q13510 22-395): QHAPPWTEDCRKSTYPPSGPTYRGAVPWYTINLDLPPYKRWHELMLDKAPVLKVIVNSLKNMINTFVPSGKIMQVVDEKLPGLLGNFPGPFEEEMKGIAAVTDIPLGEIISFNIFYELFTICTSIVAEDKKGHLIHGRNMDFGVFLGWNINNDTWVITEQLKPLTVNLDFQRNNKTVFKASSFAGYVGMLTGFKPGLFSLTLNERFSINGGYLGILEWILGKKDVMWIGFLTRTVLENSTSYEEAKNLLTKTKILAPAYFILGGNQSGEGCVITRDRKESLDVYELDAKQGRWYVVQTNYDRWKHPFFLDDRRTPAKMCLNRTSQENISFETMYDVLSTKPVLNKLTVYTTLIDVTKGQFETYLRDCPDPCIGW
Procedure: The ability of exemplary compounds to inhibit acid ceramidase was measured.
Cell lysates overexpressing acid ceramidase were used as the enzyme source for compound potency determination in a biochemical fluorescent assay. Briefly, compounds were preincubated with 10 μg protein of cell lysates in a dose-response manner for 1 hr at RT in the assay buffer containing 25 mM NaAC and 100 mM NaCl, pH 4.5. The reaction was initiated by the addition of substrate Rbm14-12 at a final concentration of 6.3 μM. The reaction was run at RT for 1 hr before it was stopped by the addition of the stopping buffer containing 20% methanol (v/v), 1 mg/ml NaIO4, 0.1 M glycine, pH 10.6. The samples were incubated with the stopping buffer at RT for 1 hr to allow the fluorescent product to be formed. Finally, the plate was read with SpectraMax i3 plate reader (Molecular Devices) at ex360 nm and em446 nm. Data were collected and used to determine the IC50 values of compounds by curve fitting to the four-parameter inhibition equation.

[1] = Compound solubility in water
[2] = pH 4.5, 1 hr preincubation at RT

SMILES	IC50 (acid ceramidase; pH 4.5) [nM]	solubility [1] [µg/mL]	IC50 (acid ceramidase; [2]) [nM]
CC(C)CCNC(=O)n1cnc2c(N3C[C@H](C)O[C@@H](C)C3)cccc21 (stereo in doubt) [Example 168, 4-((2S,6S)-2,6-Dimethylmorpholino)-N-iso-pentyl-1H-benzo[d]imidazole-1-carboxamide]	200 to 1000	11 (≈ 31.9 µM)	–
COc1nc2ccc(N3CCOCC3)cc2n1C(=O)NCCc1ccccc1 [28 & 29a]	–	18 (≈ 47.3 µM)	200 to 1000
O=C(NCCc1ccccc1)n1cnc2ccccc21 [Example 1, N-Phenethyl-1H-benzo[d]imidazole-1-carboxamide]	–	8 (≈ 30.2 µM)	< 200
Cc1nc2ccccc2n1C(=O)NCCc1ccccc1 [Example 2, 2-Methyl-N-phenethyl-1H-benzo[d]imidazole-1-carboxamide]	–	–	< 200
COc1nc2ccccc2n1C(=O)NCCc1ccccc1 [Example 3, 2-Methoxy-N-phenethyl-1H-benzo[d]imidazole-1-carboxamide]	–	10 (≈ 33.9 µM)	< 200
CN1CCC(c2ccc3c(c2)ncn3C(=O)NCCc2ccccc2)CC1 [Example 4, 5-(1-Methylpiperidin-4-yl)-N-phenethyl-1H-bezo[d]imidazole-1-carboxamide]	–	20.6 (≈ 56.8 µM)	< 200
O=C(NCCCc1ccccc1)n1cnc2ccccc21 [Example 5, N-(3-Phenylpropyl)-1H-benzo[d]imidazole-1-carboxamide]	–	13.8 (≈ 49.4 µM)	< 200
O=C(NCCCCc1ccccc1)n1cnc2ccccc21 [Example 6, N-(4-Phenylbutyl)-1H-benzo[d]imidazole-1-carboxamide]	–	1 (≈ 3.41 µM)	< 200
O=C(NCCc1ccccc1)n1cnc2cc(-c3ncccn3)ccc21 [Example 9, N-Phenethyl-5-(pyrimidin-2-yl)-1H-benzo[d]imidazole-1-carboxamide]	–	5.4 (≈ 15.7 µM)	< 200
CN1CCC(c2cccc3c2ncn3C(=O)NCCc2ccccc2)CC1 [Example 12, 4-(1-Methylpiperidin-4-yl)-N-phenethyl-1H-benzo[d]imidazole-1-carboxamide]	–	30.5 (≈ 84.1 µM)	< 200
O=C(NCc1ccccc1)n1cnc2ccccc21 [Example 17, N-Benzyl-1H-benzo[d]imidazole-1-carboxamide]	–	1.9 (≈ 7.56 µM)	< 200
O=C(NCCOc1ccccc1)n1cnc2ccccc21 [Example 18, N-(2-Phenoxyethyl)-1H-benzo[d]imidazole-1-carboxamide]	–	2 (≈ 7.11 µM)	< 200
O=C(NCCc1ccccc1)n1cnc2cnccc21 [Example 20, N-Phenethyl-1H-imidazo[4,5-c]pyridine-1-carboxamide]	–	5.3 (≈ 19.9 µM)	< 200
O=C(NCCc1ccccc1)n1cnc2ccncc21 [Example 21, N-Phenethyl-3H-imidazo[4,5-c]pyridine-3-carboxamide]	–	4.3 (≈ 16.1 µM)	< 200
O=C(NCCc1cccnc1)n1cnc2ccccc21 [Example 22, N-(2-(Pyridin-3-yl)ethyl)-1H-benzo[d]imidazole-1-carboxamide]	–	12.9 (≈ 48.4 µM)	200 to 1000
CCCCCNC(=O)n1cnc2ccccc21 [Example 23, N-Pentyl-1H-benzo[d]imidazole-1-carboxamide]	–	13.3 (≈ 57.5 µM)	< 200
CCCCNC(=O)n1cnc2ccccc21 [Example 24, N-Butyl-1H-benzo[d]imidazole-1-carboxamide]	–	21.9 (≈ 101 µM)	< 200
COCCNC(=O)n1c(OC)nc2ncccc21 [Example 95, 2-Methoxy-N-(2-methoxyethyl)-1H-imidazo[4,5-b]pyridine-1-carboxamide]	–	–	200 to 1000
CC(C)CCNC(=O)n1cnc2c(N3CCN(C)CC3)cc(Cl)cc21 [Example 112, 6-Chloro-N-iso-pentyl-4-(4-methylpiperazin-1-yl)-1H-benzo[d]imidazole-1-carboxamide]	–	27.5 (≈ 75.6 µM)	–
CCOc1nc2cccnc2n1C(=O)NCCC(C)C [Example 113, 2-Ethoxy-N-iso-pentyl-3H-imidazo[4,5-b]pyridine-3-carboxamide]	–	–	< 200
COc1nc2ncccc2n1C(=O)NCCCOc1ccccc1 [Example 129, 2-Methoxy-N-(3-phenoxypropyl)-1H-imidazo[4,5-h]pyridine-1-carboxamide]	–	–	< 200

Next, values leading:

IC50 (acid ceramidase; pH 4.5) [nM]	solubility [1] [µg/mL]	IC50 (acid ceramidase; [2]) [nM]	SMILES
–	0.4 (≈ 1.06 µM)	< 200	O=C(NCCc1ccccc1)n1cnc2cc(-c3ccccn3)c(Cl)cc21 [Example 7a, 6-Chloro-N-phenethyl-5-(pyridin-2-yl)-1H-benzo[d]imidazole-1-carboxamide]
–	0.1 (≈ 0.265 µM)	< 200	O=C(NCCc1ccccc1)n1cnc2cc(Cl)c(-c3ccccn3)cc21 [Example 7b, 5-chloro-N-phenethyl-6-(pyridin-2-yl)-1H-benzo[d]imidazole-1-carboxamide]
–	3.7 (≈ 10.8 µM)	< 200	O=C(NCCc1ccccc1)n1cnc2cc(-c3cncnc3)ccc21 [Example 8a, N-Phenethyl-5-(pyrimidin-5-yl)-1H-benzo[d]imidazole-1-carboxamide]
–	14.5 (≈ 42.2 µM)	< 200	O=C(NCCc1ccccc1)n1cnc2ccc(-c3cncnc3)cc21 [Example 8b, N-phenethyl-6-(pyrimidin-5-yl)-1H-benzo[d]imidazole-1-carboxamide]
–	1.2 (≈ 3.5 µM)	< 200	O=C(NCCc1ccccc1)n1cnc2cc(-c3cccnc3)ccc21 [Example 10a, N-Phenethyl-5-(pyridin-3-yl)-1H-benzo[d]imidazole-1-carboxamide]
–	0.6 (≈ 1.75 µM)	< 200	O=C(NCCc1ccccc1)n1cnc2ccc(-c3cccnc3)cc21 [Example 10b, N-phenethyl-6-(pyridin-3-yl)-1H-benzo[d]imidazole-1-carboxamide]
–	23.1 (≈ 58.2 µM)	< 200	CN1CCC(c2cc3c(cc2Cl)ncn3C(=O)NCCc2ccccc2)CC1 [Example 11a, 5-Chloro-6-(1-methylpiperidin-4-yl)-N-phenethyl-1H-benzo[d]imidazole-1-carboxamide]
–	23.1 (≈ 58.2 µM)	< 200	CN1CCC(c2cc3ncn(C(=O)NCCc4ccccc4)c3cc2Cl)CC1 [Example 11b, 6-Chloro-5-(1-methylpiperidin-4-yl)-N-phenethyl-1H-benzo[d]imidazole-1-carboxamide]
–	2.6 (≈ 7.46 µM)	< 200	O=C(NCCc1ccccc1)n1cnc2cc(N3CCCCC3)ccc21 [Example 13a, N-Phenethyl-5-(piperidin-1-yl)-1H-benzo[d]imidazole-1-carboxamide]
–	9.1 (≈ 26.1 µM)	< 200	O=C(NCCc1ccccc1)n1cnc2ccc(N3CCCCC3)cc21 [Example 13b, N-Phenethyl-6-(piperidin-1-yl)-1H-benzo[d]imidazole-1-carboxamide]
–	16.1 (≈ 45.9 µM)	< 200	O=C(NCCc1ccccc1)n1cnc2cc(N3CCOCC3)ccc21 [Example 14a, 5-Morpholino-N-phenethyl-1H-benzo[d]imidazole-1-carboxamide]
–	31.2 (≈ 89 µM)	< 200	O=C(NCCc1ccccc1)n1cnc2ccc(N3CCOCC3)cc21 [Example 14b, 6-Morpholino-N-phenethyl-1H-benzo[d]imidazole-1-carboxamide]
–	20.4 (≈ 56.1 µM)	< 200	CN1CCN(c2ccc3c(c2)ncn3C(=O)NCCc2ccccc2)CC1 [Example 15a, 5-(4-Methylpiperazin-1-yl)-N-phenethyl-1H-benzo[d]imidazole-1-carboxamide]
–	22.9 (≈ 63 µM)	< 200	CN1CCN(c2ccc3ncn(C(=O)NCCc4ccccc4)c3c2)CC1 [Example 15b, 6-(4-Methylpiperazin-1-yl)-N-phenethyl-1H-benzo[d]imidazole-1-carboxamide]
–	4.2 (≈ 14.2 µM)	< 200	CC(C)CNC(=O)n1cnc2cc(-c3cncnc3)ccc21 [Example 16a, N-iso-Butyl-5-(pyrimidin-5-yl)-1H-benzo[d]imidazole-1-carboxamide]
–	18.3 (≈ 62 µM)	< 200	CC(C)CNC(=O)n1cnc2ccc(-c3cncnc3)cc21 [Example 16b, N-iso-Butyl-6-(pyrimidin-5-yl)-1H-benzo[d]imidazole-1-carboxamide]
–	26.1 (≈ 98 µM)	< 200	O=C(NCCc1ccccc1)n1cnc2ncccc21 [Example 19a, N-Phenethyl-1H-imidazo[4,5-b]pyridine-1-carboxamide]
–	24.5 (≈ 92 µM)	< 200	O=C(NCCc1ccccc1)n1cnc2cccnc21 [Example 19b, N-phenethyl-3H-imidazo[4,5-b]pyridine-3-carboxamide]
–	23 (≈ 62.1 µM)	–	Cn1c(=O)n(C(=O)NCCCCn2ccc(C(C)(C)C)n2)c2ncccc21 [Example 135b, N-(4-(3-(tert-butyl)-1H-pyrazol-1-yl)butyl)-1-methyl-2-oxo-1,2-dihydro-3H-imidazo[4,5-b]pyridine-3-carboxamide]
